Measured values reported in US10961222B2, “Chemical compound of isocitrate dehydrogenase inhibitor, and application thereof” (NANJING SANHOME PHARMACEUTICAL CO., LTD., priority 2016, dated 2021).

Assays:
[1] = target: T1, IDH2-R140Q mutant enzyme (Homo sapiens, UniProt P48735, R140Q); experiment: Inhibitory activity of compounds on IDH2-R140Q enzyme in vitro (diaphorase/resazurin fluorescence); format: biochemical; conditions: IDH2-R140Q, pre-incubated 16 h with enzyme and NADPH, reaction 1 h with α-ketoglutarate; read-out: R140Q IC50
T1 construct: purchased BPS 71100-1
T1 sequence (P48735 40-452 R140Q): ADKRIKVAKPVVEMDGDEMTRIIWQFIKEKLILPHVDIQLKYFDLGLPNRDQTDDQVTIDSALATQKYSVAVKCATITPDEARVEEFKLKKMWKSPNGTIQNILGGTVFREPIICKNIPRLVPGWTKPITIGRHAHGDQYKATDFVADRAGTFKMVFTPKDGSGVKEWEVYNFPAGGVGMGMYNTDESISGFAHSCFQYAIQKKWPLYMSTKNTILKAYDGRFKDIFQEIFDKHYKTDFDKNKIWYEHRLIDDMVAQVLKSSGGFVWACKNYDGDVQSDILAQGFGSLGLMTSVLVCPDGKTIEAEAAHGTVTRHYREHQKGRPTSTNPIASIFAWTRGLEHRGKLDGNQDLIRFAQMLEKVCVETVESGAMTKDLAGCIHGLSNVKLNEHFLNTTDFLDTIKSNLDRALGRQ
Procedure: Instrument: SpectraMax M3 Multi-Mode Microplate Reader, purchased from Molecular Devices.
In a 96-well plate, 40 μL of reaction buffer containing 2× enzyme (IDH2-WT or IDH2-R140Q) and cofactor (NADP or NADPH) was added to each well of the compound group and the DMSO control group, and 40 μL of reaction buffer containing 2× cofactor (NADP or NADPH) was added to each well of the enzyme-free control group.
20 μL of reaction buffer containing 4× compound to be tested was added to each well of the compound group. The compound was pre-formulated into 200× mother liquor with 100% DMSO; in the final reaction system, the concentration of DMSO was 0.5%. 20 μL of reaction buffer containing DMSO was added to each well of the DMSO control group; in the final reaction system, the concentration of DMSO was 0.5%.
The compound was mixed well with the enzyme and cofactor, and pre-incubated at room temperature for 16 h;
20 μL of reaction buffer containing 4× reaction substrate was added to each well. After mixed uniformly, the mixture was reacted at room temperature for 1 h.
3× termination and detection solution (it was prepared with reaction buffer, the final concentration of Diaphorase was 0.015 mg/mL, and the final concentration of Resazurin was 0.03 mM) was prepared. 40 μL of 3× termination and detection solution was added to each well of the enzyme reaction system. After mixed uniformly, the mixture was incubated at room temperature for 10 min;
Fluorescence values of two wells were obtained and averaged and the activity rate (Activity %) was calculated. The calculation formula: Activity %=(Measured data−Subtract background)/(DMSO Control−Subtract background)×100, wherein “Measured data” is fluorescence value of the compound in the pre-incubated wells, “Subtract background” is the fluorescence value of the enzyme-free control wells, and “DMSO Control” is the fluorescence value in the DMSO pre-incubated wells. Data was processed by GraphPad Prism v5.0 software and fitted to obtain IC50.

[2] = tested on: U87-MG (IDH2-R140Q) subcutaneous xenograft tumor; experiment: Subcutaneous xenograft tumor caused by U87-MG (IDH2-R140Q) mutant cells in vivo: intratumor 2-HG; set-up: species or system BALB/c nude mice; conditions: for Intratumor 2-HG(%) after 10 days of administration: intragastric, mean, relative to U87-MG (IDH2-R140Q) control group; for ability of lowering 2-HG level compared with positive compound AG-221: U87-MG (IDH2-R140Q) subcutaneous xenograft model
Description: 1.2 Animals: BALB/c nude mice, 6-7 weeks old, female, 18-22 g, purchased from Nanjing Jinlaichang Company.
U87-MG (IDH2-R140Q) cells and U87-MG cells (wild type) were expanded, and cells in logarithmic growth phase were used for tumor inoculation in vivo. 16 mice were inoculated subcutaneously into the right lower back of the body at an amount of 2×10^6 cells/mouse (the volume ratio of cell suspension to Matrigel was 1:0.8).
The non-mutation control group was nude mice inoculated with U87-MG cells, and the test compound groups and vehicle control group were nude mice inoculated with U87-MG (IDH2-R140Q) cells.
Each group was intragastrically administered with a corresponding concentration of the compound solution, the administration volume was 100 μL/10 g body weight, and the control group was administered the same volume of blank vehicle.
After 10 days of administration, the mice were sacrificed. The tumors were exfoliated, homogenized, and the 2-HG content in the tumor was examined.
The 2-HG concentration in the homogenate of each animal tumor in each group was determined by LC-MS/MS. The percentage (2-HG %) was calculated; the calculation formula is as follows 2-HG %=(2-HG concentration of administration group tumor−2-HG concentration of U87-MG control group tumor)/(2-HG concentration of U87−MG(IDH2-R140Q) control group tumor−2-HG concentration of U87-MG control group tumor)×100%.

[3] = target: T2, U87-MG cell line of overexpressed mutant IDH2 (R140Q) (Homo sapiens, UniProt P48735, R140Q); experiment: Cell activity in vitro: 2-HG in culture supernatant of U87-MG (IDH2-R140Q) cells by LC-MS/MS; format: cell-based; conditions: U87-MG (IDH2-R140Q) cells, 72 hours, 2-HG in supernatant; read-out: IC50 (2-HG remaining compared to untreated)
T2 construct: expressed in transfected cells
T2 sequence (P48735 40-452 R140Q): T1 sequence (P48735 40-452 R140Q)
Procedure: 1.2 Cells: human glioblastoma cell line U87-MG, purchased from the American Type Culture Collection (ATCC);
Cell recovery: U87-MG (IDH2-R140Q) cells and U87-MG cells were put into a 37° C. water bath, then transferred to 15 mL of pre-warmed medium, centrifuged at 1000 rpm for 5 minutes, and the medium was discarded. The cells were resuspended in 15 mL of fresh medium, transferred to a T75 flask and cultured in a 37° C. incubator with 5% CO2. After 24 hours, the medium was changed to fresh medium.
Cell passage: The above-mentioned recovered cells were transferred to a 50 mL sterile centrifuge tube, centrifuged at 1000 rpm for 5 minutes, and the medium was discarded. The cells were resuspended evenly and counted. The cell density was adjusted appropriately in a 15 mL fresh medium, and then added to T75 culture flask. The culture flask was incubated in an incubator with 5% CO2 at 37° C.
After cells grown to a relatively high density in the culture dish, the cells were trypsinized, resuspended in medium (MEM+10% FBS), and counted. After adjusting the cell concentration, the resuspended cells were seeded in a 96-well plate at 5×10^3 cells per well. After inoculation, the cells were cultured for 24 hours until the cells adhered. The medium were sucked out, and the medium containing gradient concentration of compound was added, 100 μL per well. The cells were further cultured for 72 hours. The s 20 μL of upernatant was taken and put into a 2 mL 96-well sample-processing plate. 480 μL of dilution solution was added and shaken for mixing, and then centrifuged at 4500 rpm for 5 minutes. 200 μL of supernatant was transferred for LC-MS/MS injection analysis.
Column: Shim-pack XR-ODS 30L*2.0; mobile phase: acetonitrile-0.2% ammonia, 5 mM ammonium acetate aqueous solution; column temperature: 30° C.; flow rate: 0.4 mL/min; gradient elution conditions are as follows: […]
Atmospheric […] chemical ionization (APCI) was used. Source parameters was set as follows: IonSpray Voltage/IS-4500V; auxiliary gas 1 (Ion Source Gas 1/GS 1, N2), 55Arb; auxiliary gas 2 (Ion Source Gas 2, N2), 55Arb; auxiliary gas heating temperature (Temperature/TEM), 500° C.; curtain gas/CUR, 25Arb; collision gas/CAD, N2, 8 Pa.
Multi-ion reaction monitoring (MRM) in negative ion mode (Negative) was used. […] The internal standard (IS) MRM parameters: parent ion (Q 1 Mass), 178.0 Da; daughter ion (Q3 Mass), 149.0 Da; Decluster Potential (DP), −51V; collision voltage (Collision Energy/CE), −17 eV
By determining the 2-HG content in the cell culture supernatant of each well using LC-MS/MS, the mutant enzyme activity (2-HG remaining compared to untreated %) was calculated. The calculation formula: 2-HG remaining compared to untreated %=(Measured 2-HG level—U87-MG control 2-HG level)/(Untreated 2-HG level—U87-MG control 2-HG level)×100. […] Data were processed by GraphPad Prism v5.0 software and fitted to obtain IC50.

SMILES | IC50 [1] [nM] | Intratumor 2-HG(%) after 10 days of administration ([2]; 25 mg/kg) [%] | IC50 [3] [nM] | Intratumor 2-HG(%) after 10 days of administration ([2]; 12.5 mg/kg) [%] | ability of lowering 2-HG level compared with positive compound AG-221 [2] | Intratumor 2-HG(%) after 10 days of administration ([2]; 6.25 mg/kg) [%]
FC1(F)CCN(c2nc(Nc3ccnc(C(F)(F)F)c3)nc(-c3cccc(C(F)(F)F)n3)n2)CC1 [Example 1, 4-(4,4-Difluoropiperidin-1-yl)-6-(6-(trifluoromethyl)pyridin-2-yl)-N-(2-(trifluoromethyl)pyridin-4-yl)-1,3,5-triazin-2-amine] | 11 | 22 | 15 | – | – | –
FC1(F)CCCN(c2nc(Nc3ccnc(C(F)(F)F)c3)nc(-c3cccc(C(F)(F)F)n3)n2)C1 [Example 2, 4-(3,3-Difluoropiperidin-1-yl)-6-(6-(trifluoromethyl)pyridin-2-yl)-N-(2-(trifluoromethyl)pyridin-4-yl)-1,3,5-triazin-2-amine] | 23 | – | 27 | 14 | – | –
OC1CCCN(c2nc(Nc3ccnc(C(F)(F)F)c3)nc(-c3cccc(C(F)(F)F)n3)n2)C1 (centres unmarked) [Example 3, 4-(3-Hydroxypiperidin-1-yl)-6-(6-(trifluoromethyl)pyridin-2-yl)-N-(2-(trifluoromethyl)pyridin-4-yl)-1,3,5-triazin-2-amine] | 22 | – | 24 | 22 | – | –
O[C@]1(C(F)(F)F)CCN(c2nc(Nc3ccnc(C(F)(F)F)c3)nc(-c3cccc(C(F)(F)F)n3)n2)C1 [Example 22A, (R)-4-(3-trifluoromethyl-3-hydroxypyrrolidin-1-yl)-6-(6-(trifluoromethyl)pyridin-2-yl)-N-(2-(trifluoromethyl)pyridin-4-yl)-1,3,5-triazin-2-amine] | – | – | – | – | substantially superior | –
O[C@H]1CN(c2nc(Nc3ccnc(C(F)(F)F)c3)nc(-c3cccc(C(F)(F)F)n3)n2)C[C@@H]1F [Example 23, 4-((3S,4S)-3-hydroxy-4-fluoropyrrolidin-1-yl)-6-(6-(trifluoromethyl)pyridin-2-yl)-N-(2-(trifluoromethyl)pyridin-4-yl)-1,3,5-triazin-2-amine] | 30 | – | – | – | – | 67
OC1(C(F)(F)F)CN(c2nc(Nc3ccnc(C(F)(F)F)c3)nc(-c3cccc(C(F)(F)F)n3)n2)C1 [Example 34] | 14.1 | – | 17.1 | 24 | – | –
FC(F)(F)c1cc(Nc2nc(OCC(F)(F)C(F)(F)F)nc(-c3cccc(C(F)(F)F)n3)n2)ccn1 [Example 45, 4-(2,2,3,3,3-pentafluoropropoxy)-6-(6-(trifluoromethyl)pyridin-2-yl)-N-(2-(trifluoromethyl)pyridin-4-yl)-1,3,5-triazin-2-amine] | 6.3 | – | 10.2 | – | substantially superior | 17
N#C[C@H]1CCN(c2nc(Nc3ccnc(C(F)(F)F)c3)nc(-c3cccc(C(F)(F)F)n3)n2)C1 [Example 51, 4-((S)-3-cyanopyrrolidin-1-yl)-6-(6-(trifluoromethyl)pyridin-2-yl)-N-(2-(trifluoromethyl)pyridin-4-yl)-1,3,5-triazin-2-amine] | 18 | – | – | – | substantially superior | 38
FC(F)(F)c1cc(Nc2nc(-c3cccc(C(F)(F)F)n3)nc(N3CC(F)(F)C(F)(F)C3)n2)ccn1 [Example 55, 4-(3,3,4,4-Tetrafluoropyrrolidin-1-yl)-6-(6-(trifluoromethyl)pyridin-2-yl)-N-(2-(trifluoromethyl)pyridin-4-yl)-1,3,5-triazin-2-amine] | 10.1 | – | 15 | – | substantially superior | 1
